How the values were obtained:
RKO cells = experiment: Screening of SCADS Inhibitor Kit with dabrafenib + trametinib, cell viability by MTT assay; type: cell-based
Procedure: As the SCADS Inhibitor Kit, one provided by the Molecular Profiling Committee of the Grants-in-Aid for Scientific Research “Advanced Animal Model Support (AdAMS)” in the innovation field of the Ministry of Education, Culture, Sports, Science and Technology was used.
The RKO cells were seeded on a 96-well plate with the number of cells of 2.7×10^3 cells/well, and 24 hours later, SCADS Inhibitor Kit 4 ver 2.3 was administered at 500 nM. Two plates treated in the same manner were prepared, and 50 nM of the BRAF inhibitor Dabrafenib and 5 nM of the MEK inhibitor Trametinib were administered to one of the plates. After incubation at 37° C. for 72 hours after the drug administration, cell viability was measured by an MTT assay (described below). The cell viability was evaluated for RKO cells administered with only DMSO.
The MTT (Thiazolyl blue tetrazolium bromide) assay was performed as follows.
RKO cells were seeded on a 96-well plate with the number of cells of 1.5×10^3 cells/well, CO115 cells were seeded on a 96-well plate with the number of cells of 2.5×10^3 cells/well, and HT29 cells and WiDR cells were respectively seeded on 96-well plates with the number of cells of 6×10^3 cells/well. After incubation for about 24 hours until the cell density reached 40% to 60%, the drug was administered. […]
The synergistic effect was evaluated using Combination Index. […]

HT29 cells = experiment: Xenograft mouse model (Test Example 5), tumor volume and body weight; type: in vivo; details: nude mice, ATRA 10 mg/kg oral daily for 21 days
Procedure: As an in vivo test, the therapeutic agent for cancer according to the embodiment was administered to a mouse, and the antitumor effect was verified based on a change in tumor size (volume). Xenograft mouse model was prepared as follows. Female nude mice (BALB/c-nu) were purchased from Charles River Laboratories Japan (Yokohama, Japan) and raised in a specific pathogen-free environment. The above-described HT29 cells cultured were collected with trypsin, and suspended in a mixed solution of a culture medium and a Corning Matrigel basement membrane matrix (Corning, NY, USA) so as to reach 1×10^7 cells/ml. Into a left abdominal region of each mouse was subcutaneously implanted 0.1 mL of cell suspension. […] Encorafenib was orally administered at a dose of 10 mg/kg daily, and ATRA was orally administered at a dose of 10 mg/kg daily for 21 days. Feeding needles for mice were used for oral administration. Cetuximab was intraperitoneally administered twice a week at a dose of 20 mg/kg. Each solvent was used as the control. The tumor size and the body weight were measured every three days after the start of the therapy, and the volume was estimated using a calculation formula (tumor volume (mm^3)=½× major axis (mm)×[…]). […]

HT29 cell line [1] = experiment: Annexin V-PI apoptosis assay; type: cell-based; details: TRE 10 μM, ENC 10 nM, BIN 10 nM, 72 hours, TRE vs DMSO
Procedure: (§1) Thereafter, the cells were collected, washed with PBS, and stained with Annexin V and PI using Annexin V-FITC Apoptosis Detection Kit (Nakalai Tesque). Apoptotic cells were detected using CytoFLEX LX. A proportion of cells positive for Annexin V was calculated as a proportion of apoptotic cells. The above was performed three times as an independent experiment. Student's test was used for a significant difference test.

RKO cell line = experiment: Annexin V-PI apoptosis assay; type: cell-based; details: TRE 10 μM, ENC 100 nM, BIN 100 nM, 72 hours, TRE vs DMSO
Procedure: as §1

[2] = system: cleaved PARP in RKO cell line; experiment: Western blot of cleaved PARP under RARα or RXRα knockdown; type: cell-based
Procedure: To the collected cells were added Radioimmunoprecipitation assay buffer (composition: 50 mM Tris-HCL, pH 8.0, 150 mM Sodium Chloride, 0.5 w/v % Sodium Deoxycholate, 0.1 w/v % Sodium Dodecyl Sulfate, 1.0 w/v % NP-40 substitute) supplemented with Halt Protease Inhibitor Cocktail (Thermo Fisher Scientific Inc.), followed by dissolving the cells, and a protein was extracted. The extracted protein was quantified by a bicinchoninic acid method. A protein sample in an amount of 5 μg was separated by polyacrylamide electrophoresis, and the separated protein sample was transferred to Polyvinylidene difluoride membrane (PVDF membrane, Merck Millipore Ltd.), followed by blocking with Odyssey Blocking Buffer (Licor Inc.) for 1 hour at room temperature. Thereafter, the PVDF membrane after transfer was immersed in a primary antibody solution, followed by culturing at room temperature for 2 hours or at 4° C. overnight. After the primary antibody reaction, the PVDF membrane was washed with Tris Buffered Saline with Tween 20 (TBS-T) for 5 minutes at room temperature for three times and immersed in a secondary antibody, followed by incubating at room temperature for 1 hour. As the secondary antibody, Goat anti-Rabbit IgG (H+L) Highly Cross-Adsorbed Secondary Antibody Alexa Fluor680 (Thermo Fisher Scientific Inc.) and Goat anti-Mouse IgG (H+L) Highly Cross-Adsorbed Secondary Antibody Alexa Fluor680 (Thermo Fisher Scientific Inc.) were used at a dilution ratio of 1:1000. Thereafter, washing with TBS-T for 5 minutes was performed three times, and a measurement of signals was performed using an Odyssey Infrared Imaging System (Licor Inc.). […] The above was performed three or more times as independent experiments. Student's test was used for a significant difference test.

HT29 cell line [3] = experiment: Subcutaneous transplanted tumor mouse model (Test Example 13); type: in vivo
Procedure: The in vivo antitumor effect and toxicity generated by combined use of a compound acting on a retinoid receptor, a BRAF inhibitor, an MEK inhibitor, and an anti-EGFR antibody, or a BRAF inhibitor and an anti-EGFR antibody were evaluated by a mouse model subcutaneous transplanted with a HT29 cell line.
Female nude mice (BALB/c-nu) were purchased from The Jackson Laboratory Japan, and raised in a specific pathogen-free environment. The cultured HT29 cell line was collected with trypsin, and a culture medium and a Corning Matrigel basement membrane matrix (Corning) were mixed at a volume ratio of 1:1 so as to reach 1×10^7 cells/mL, followed by suspension. Into a left abdominal region of each mouse was subcutaneously implanted 0.1 mL of cell suspension. When tumor volumes reached 150 mm^3 to 200 mm^3, mice were randomly divided into a vehicle group, a TRE single group, an ENC+CET group, a three-drug combination (TRE+ENC+CET) group including TRE and ENC+CET, an ENC+BIN+CET group, or a four-drug combination (TRE+ENC+BIN+CET) group including TRE and ENC+BIN+CET. TRE, ENC, and BIN were dissolved in Corn oil (FUJIFILM Wako Pure Chemical Industries, Ltd.), and further subjected to ultrasonic treatment using Bioruptor UCW-310 (Sonicbio. Co. Ltd.) to prepare a drug solution. ENC, BIN, and TRE were orally administrated by force once a day for 28 days at doses of 5 mg/kg, 1.75 mg/kg, and 10 mg/kg, respectively. […] The tumor size and the body weight were measured every three days from the start of the therapy. […]
Subsequently, in order to evaluate the influence of the combined use of TRE and ENC+BIN+CET or ENC+CET on in vivo tumor proliferation, a Ki-67 labeling index was calculated using a resected tumor at the end of the therapy.
Specifically, tumors were extracted from 4 to 6 mice randomly selected from each therapy group. […] Five fields of view for a central part of the tumor without tumor necrosis were selected, and 500 or more cells in total were counted in each group. The Ki-67 labeling index was calculated as the number of Ki-67 positive cells/the total number of cells.

## CC1=C(/C=C/C(C)=C/C=C/C(C)=C/C(=O)O)C(C)(C)CCC1 [ATRA, all-trans retinoic acid]
RKO cells; ATRA alone
  proliferation inhibition: less than 20%
RKO cells; Homo sapiens, RKO, 72 hours, kit compound (ATRA) 0.5 μM, DAB 50 nM, TRA 5 nM, relative to DMSO
  viability at 0.5 µM: 101%
HT29 cells
  side effects (body weight): does not cause any significant side effects
HT29 cells; encorafenib 10 mg/kg oral daily, cetuximab 20 mg/kg i.p. twice a week
  tumor volume (tumor size) change: increased with day
HT29 cell line [1]
  apoptotic cell proportion (Annexin V positive): no significant change
RKO cell line
  apoptotic cell proportion (Annexin V positive): no significant change
[2]; RARα inhibited
  enhancement by TRE of expression level of cleaved PARP caused by ENC+BIN: about 8 times
  enhancement by TRE of expression level of cleaved PARP caused by ENC+BIN+CET: about 3 times
[2]; RXRα inhibited
  enhancement by TRE of expression level of cleaved PARP caused by ENC+BIN: about 1.5 times
  enhancement by TRE of expression level of cleaved PARP caused by ENC+BIN+CET: about 2 times
[2]; si-NC
  enhancement by TRE of expression level of cleaved PARP caused by ENC+BIN: about 13 times
  enhancement by TRE of expression level of cleaved PARP caused by ENC+BIN+CET: about 11 times
HT29 cell line [3]; 28 days after the therapy
  mouse body weights depending on the presence or absence of TRE: no significant difference
HT29 cell line [3]; 28 days from the start of the therapy, ENC 5 mg/kg, BIN 1.75 mg/kg, TRE 10 mg/kg oral once a day, CET 20 mg/kg i.p. twice a week
  tumor volume: 1156 mm^3
HT29 cell line [3]; resected tumor at the end of the therapy, TRE vs vehicle, combinations vs same group without TRE
  Ki-67 labeling index: No significant difference

— patent US20250108051A1, “THERAPEUTIC AGENT FOR CANCER” (TOHOKU UNIVERSITY, priority 2022, published 2025)
